Results reported in article PMC5218480 (PLoS ONE, 2017).

Test system: MV-4-11 cells
Assay: Gene expression microarray analysis (Affymetrix PrimeView) and GSEA
Assay type: cell-based, human
Parameters: RFU PODN (11730768_x_at) / Fold change /veh PODN (11730768_x_at) / RFU LINC00158 (11744669_a_at) / Fold change /veh LINC00158 (11744669_a_at) / RFU DUSP10 (11751237_a_at) / Fold change /veh DUSP10 (11751237_a_at) / RFU ID3 (11757404_x_at) / Fold change /veh ID3 (11757404_x_at) / RFU PLEKHG5 (11737974_s_at) / Fold change /veh PLEKHG5 (11737974_s_at) / RFU LRRC4B (11730491_at) / Fold change /veh LRRC4B (11730491_at) / RFU GIMAP4 (11747438_a_at) / Fold change /veh GIMAP4 (11747438_a_at) / RFU KRT8 (11758183_x_at) / Fold change /veh KRT8 (11758183_x_at) / RFU CNN1 (11734310_a_at) / Fold change /veh CNN1 (11734310_a_at) / RFU VPS37D (11726825_at) / Fold change /veh VPS37D (11726825_at) / RFU C10orf10 (11716522_x_at) / Fold change /veh C10orf10 (11716522_x_at) / RFU KIR2DL2 /// KIR2DL4 /// KIR2DL5A /// KIR2DL5B /// KIR2DS1 /// KIR2DS2 /// KIR2DS3 /// KIR2DS4 /// KIR3DL3 /// KIR3DL3 /// KIR3DS1 (11738374_at) / Fold change /veh KIR2DL2 /// KIR2DL4 /// KIR2DL5A /// KIR2DL5B /// KIR2DS1 /// KIR2DS2 /// KIR2DS3 /// KIR2DS4 /// KIR3DL3 /// KIR3DL3 /// KIR3DS1 (11738374_at) / RFU C1QL1 (11718748_at) / Fold change /veh C1QL1 (11718748_at) / RFU TMPRSS4 (11747572_a_at) / Fold change /veh TMPRSS4 (11747572_a_at) / RFU HAMP (11756126_x_at) / Fold change /veh HAMP (11756126_x_at) / RFU RNFT2 (11725882_a_at) / Fold change /veh RNFT2 (11725882_a_at) / RFU NR4A2 (11747474_a_at) / Fold change /veh NR4A2 (11747474_a_at) / RFU ABCC12 (11746883_a_at) / Fold change /veh ABCC12 (11746883_a_at) / RFU TMEM136 (11760407_x_at) / Fold change /veh TMEM136 (11760407_x_at) / RFU CLDN22 /// WWC2 (11732394_at) / Fold change /veh CLDN22 /// WWC2 (11732394_at) / RFU HLA-DPB1 (11760878_x_at) / Fold change /veh HLA-DPB1 (11760878_x_at) / RFU SPINT1 (11716480_a_at) / Fold change /veh SPINT1 (11716480_a_at) / RFU GAP43 (11754022_s_at) / Fold change /veh GAP43 (11754022_s_at) / RFU A4GNT (11735810_at) / Fold change /veh A4GNT (11735810_at) / RFU PRB3 (11715151_x_at) / Fold change /veh PRB3 (11715151_x_at) / RFU TUBB4B (11761932_at) / Fold change /veh TUBB4B (11761932_at) / RFU CAPN14 (11732068_a_at) / Fold change /veh CAPN14 (11732068_a_at) / RFU TMCC2 (11721928_a_at) / Fold change /veh TMCC2 (11721928_a_at) / RFU IRGQ (11745062_a_at) / Fold change /veh IRGQ (11745062_a_at) / RFU FAM174B (11720279_a_at) / Fold change /veh FAM174B (11720279_a_at) / RFU TMPRSS4 (11748680_a_at) / Fold change /veh TMPRSS4 (11748680_a_at) / RFU FAM212B (11763350_a_at) / Fold change /veh FAM212B (11763350_a_at) / RFU PLEKHG5 (11743358_a_at) / Fold change /veh PLEKHG5 (11743358_a_at) / RFU ZSCAN30 (11745921_a_at) / Fold change /veh ZSCAN30 (11745921_a_at) / RFU CMKLR1 (11741424_a_at) / Fold change /veh CMKLR1 (11741424_a_at) / RFU LOC101060620 /// MAPK8IP1 (11723275_at) / Fold change /veh LOC101060620 /// MAPK8IP1 (11723275_at) / RFU SPTSSB (11747773_x_at) / Fold change /veh SPTSSB (11747773_x_at) / RFU PRSS12 (11739890_at) / Fold change /veh PRSS12 (11739890_at) / RFU BIN1 (11741810_x_at) / Fold change /veh BIN1 (11741810_x_at) / RFU WNT11 (11732464_a_at) / Fold change /veh WNT11 (11732464_a_at) / RFU C10orf10 (11716521_a_at) / Fold change /veh C10orf10 (11716521_a_at) / RFU C5orf56 (11738089_at) / Fold change /veh C5orf56 (11738089_at) / RFU CYB561 (11721691_x_at) / Fold change /veh CYB561 (11721691_x_at) / RFU ANKRD19P (11752326_a_at) / Fold change /veh ANKRD19P (11752326_a_at) / RFU OR2T12 /// OR2T33 /// OR2T8 (11738714_s_at) / Fold change /veh OR2T12 /// OR2T33 /// OR2T8 (11738714_s_at) / RFU VCAN (11748164_a_at) / Fold change /veh VCAN (11748164_a_at) / RFU JSRP1 (11732532_at) / Fold change /veh JSRP1 (11732532_at) / RFU KRTAP10-11 (11738290_x_at) / Fold change /veh KRTAP10-11 (11738290_x_at) / RFU MYO3A (11730013_a_at) / Fold change /veh MYO3A (11730013_a_at) / RFU EBF3 (11725865_a_at) / Fold change /veh EBF3 (11725865_a_at) / RFU CAMK2N1 (11719241_x_at) / Fold change /veh CAMK2N1 (11719241_x_at) / RFU C5orf56 (11738088_a_at) / Fold change /veh C5orf56 (11738088_a_at) / RFU OLFML3 (11715873_a_at) / Fold change /veh OLFML3 (11715873_a_at) / RFU LOC100653217 /// NTM (11731650_a_at) / Fold change /veh LOC100653217 /// NTM (11731650_a_at) / RFU MAPK11 (11762145_a_at) / Fold change /veh MAPK11 (11762145_a_at) / RFU FIZ1 (11724087_x_at) / Fold change /veh FIZ1 (11724087_x_at) / RFU OASL (11726364_x_at) / Fold change /veh OASL (11726364_x_at) / RFU SOX15 (11748057_x_at) / Fold change /veh SOX15 (11748057_x_at) / RFU CD79A (11719716_a_at) / Fold change /veh CD79A (11719716_a_at) / RFU HIST1H1D (11736915_at) / Fold change /veh HIST1H1D (11736915_at) / RFU CASKIN2 (11723855_a_at) / Fold change /veh CASKIN2 (11723855_a_at) / RFU LOC730098 (11760151_x_at) / Fold change /veh LOC730098 (11760151_x_at) / RFU OR4N2 (11742367_at) / Fold change /veh OR4N2 (11742367_at) / RFU PRRT2 (11749266_a_at) / Fold change /veh PRRT2 (11749266_a_at) / RFU SNX32 (11753110_a_at) / Fold change /veh SNX32 (11753110_a_at) / RFU CDHR5 (11726645_a_at) / Fold change /veh CDHR5 (11726645_a_at) / RFU RCAN1 (11760418_a_at) / Fold change /veh RCAN1 (11760418_a_at) / RFU FAM167A (11723789_a_at) / Fold change /veh FAM167A (11723789_a_at) / RFU FAM26E (11764081_at) / Fold change /veh FAM26E (11764081_at) / RFU ISYNA1 (11749810_s_at) / Fold change /veh ISYNA1 (11749810_s_at) / RFU ACY1 (11761880_at) / Fold change /veh ACY1 (11761880_at) / RFU 11764098_at / Fold change /veh 11764098_at / RFU SAMD14 (11745864_x_at) / Fold change /veh SAMD14 (11745864_x_at) / RFU NPB (11741838_a_at) / Fold change /veh NPB (11741838_a_at) / RFU TMPRSS6 (11731388_a_at) / Fold change /veh TMPRSS6 (11731388_a_at) / RFU KRTAP10-2 (11738614_at) / Fold change /veh KRTAP10-2 (11738614_at) / RFU ARHGAP8 /// PRR5-ARHGAP8 (11727945_x_at) / Fold change /veh ARHGAP8 /// PRR5-ARHGAP8 (11727945_x_at) / RFU KRTAP5-7 /// NADSYN1 (11734609_at) / Fold change /veh KRTAP5-7 /// NADSYN1 (11734609_at) / RFU RASL12 (11751679_a_at) / Fold change /veh RASL12 (11751679_a_at) / RFU CDKN2B (11736163_a_at) / Fold change /veh CDKN2B (11736163_a_at) / RFU PRF1 (11729649_at) / Fold change /veh PRF1 (11729649_at) / RFU, ZNF638 /// ZNF638-IT1 / Fold change vs veh, ZNF638 /// ZNF638-IT1 / RFU, PANK3 / Fold change vs veh, PANK3 / RFU, SH3YL1 / Fold change vs veh, SH3YL1 / RFU, ZEB2 / Fold change vs veh, ZEB2 / RFU, NRIP1 / Fold change vs veh, NRIP1 / RFU, PTTG1IP / Fold change vs veh, PTTG1IP / RFU, CAPN2 / Fold change vs veh, CAPN2 / RFU, MED14 / Fold change vs veh, MED14 / RFU, SNORA58 / Fold change vs veh, SNORA58 / RFU, C1orf63 / Fold change vs veh, C1orf63 / RFU, LRRFIP1 / Fold change vs veh, LRRFIP1 / RFU, NDUFAF7 / Fold change vs veh, NDUFAF7 / RFU, SLC12A2 / Fold change vs veh, SLC12A2 / RFU, IBTK / Fold change vs veh, IBTK / RFU, ESF1 / Fold change vs veh, ESF1 / Fold change vs veh, TMEM50B / RFU, TAOK1 / Fold change vs veh, TAOK1 / RFU, ACBD3 / Fold change vs veh, ACBD3 / RFU, TMA16 / Fold change vs veh, TMA16 / RFU, RWDD3 / Fold change vs veh, RWDD3 / RFU, BCAT1 / Fold change vs veh, BCAT1 / RFU, EDEM3 / Fold change vs veh, EDEM3 / RFU, TMEM33 / Fold change vs veh, TMEM33 / RFU, WDR75 / Fold change vs veh, WDR75 / RFU, AHCTF1 / Fold change vs veh, AHCTF1 / RFU, TFRC / Fold change vs veh, TFRC / RFU, ZDHHC17 / Fold change vs veh, ZDHHC17 / RFU, NOM1 / Fold change vs veh, NOM1 / RFU, ARL8B / Fold change vs veh, ARL8B / RFU, ZBTB11 / Fold change vs veh, ZBTB11 / RFU, TAMM41 / Fold change vs veh, TAMM41 / RFU, KIAA1704 /// LOC100996395 / Fold change vs veh, KIAA1704 /// LOC100996395 / RFU, ING1 / Fold change vs veh, ING1 / RFU, TRMT61B / Fold change vs veh, TRMT61B / RFU, FUBP3 / Fold change vs veh, FUBP3 / RFU, TP53 / Fold change vs veh, TP53 / RFU, TNKS2 / Fold change vs veh, TNKS2 / RFU, ZFP14 / Fold change vs veh, ZFP14 / RFU, ACTR2 / Fold change vs veh, ACTR2 / RFU, PPP3R1 / Fold change vs veh, PPP3R1 / RFU, PIK3R1 / Fold change vs veh, PIK3R1 / RFU, HNRNPA1 / Fold change vs veh, HNRNPA1 / RFU, RNF170 / Fold change vs veh, RNF170 / RFU, ZNF28 / Fold change vs veh, ZNF28 / RFU, RNGTT / Fold change vs veh, RNGTT / RFU, OGT / Fold change vs veh, OGT / RFU, BRD1 / Fold change vs veh, BRD1 / RFU, MARS / Fold change vs veh, MARS / RFU, ZNF655 / Fold change vs veh, ZNF655 / RFU, FAHD1 / Fold change vs veh, FAHD1 / RFU, BDP1 / Fold change vs veh, BDP1 / RFU, LRRCC1 / Fold change vs veh, LRRCC1 / RFU, ARID1A / Fold change vs veh, ARID1A / RFU, ZNF146 / Fold change vs veh, ZNF146 / RFU, ZNF330 / Fold change vs veh, ZNF330 / RFU, GPN3 / Fold change vs veh, GPN3 / RFU, C9orf123 / Fold change vs veh, C9orf123 / RFU, N4BP2L2 / Fold change vs veh, N4BP2L2 / RFU, ARFIP1 / Fold change vs veh, ARFIP1 / RFU, FAM179B / Fold change vs veh, FAM179B / RFU, BCL10 / Fold change vs veh, BCL10 / RFU, UHRF1BP1L / Fold change vs veh, UHRF1BP1L / RFU, BET1 / Fold change vs veh, BET1 / RFU, CNOT2 / Fold change vs veh, CNOT2 / RFU, ZNF268 / Fold change vs veh, ZNF268 / Fold change vs veh, ZNF507 / RFU, DGCR2 / Fold change vs veh, DGCR2 / RFU, WDSUB1 / Fold change vs veh, WDSUB1 / Fold change vs veh, HSP90B1 /// MIR3652 / RFU, ADSS / Fold change vs veh, ADSS / RFU, GK / Fold change vs veh, GK / RFU, ZNF148 / Fold change vs veh, ZNF148 / RFU, TAF9 / Fold change vs veh, TAF9 / RFU, SLC1A5 / Fold change vs veh, SLC1A5 / RFU, SLMO2 / Fold change vs veh, SLMO2 / RFU, ABCC4 / Fold change vs veh, ABCC4 / RFU, LOC101060439 /// RAP1B / Fold change vs veh, LOC101060439 /// RAP1B / RFU, RFX7 / Fold change vs veh, RFX7 / RFU, GTPBP10 / Fold change vs veh, GTPBP10 / RFU, CNEP1R1 / Fold change vs veh, CNEP1R1 / RFU, BIVM-ERCC5 /// ERCC5 / Fold change vs veh, BIVM-ERCC5 /// ERCC5 / RFU, ILF3 / Fold change vs veh, ILF3 / RFU 11762660_at / Fold change /veh 11762660_at / RFU VCAN (11757783_s_at) / Fold change /veh VCAN (11757783_s_at) / RFU DDX43 (11728927_at) / Fold change /veh DDX43 (11728927_at) / RFU KRT8 (11758188_x_at) / Fold change /veh KRT8 (11758188_x_at) / RFU NKD1 (11759106_at) / Fold change /veh NKD1 (11759106_at) / RFU SRD5A1 (11742802_a_at) / Fold change /veh SRD5A1 (11742802_a_at) / RFU TPSAB1 /// TPSB2 (11721975_s_at) / Fold change /veh TPSAB1 /// TPSB2 (11721975_s_at) / RFU GSTM3 (11746129_a_at) / Fold change /veh GSTM3 (11746129_a_at) / RFU IL23R (11737362_x_at) / Fold change /veh IL23R (11737362_x_at) / RFU TMEM51 (11727254_a_at) / Fold change /veh TMEM51 (11727254_a_at) / RFU PIWIL2 (11732686_x_at) / Fold change /veh PIWIL2 (11732686_x_at) / RFU ORM1 (11744905_x_at) / Fold change /veh ORM1 (11744905_x_at) / RFU CCDC152 (11743942_at) / Fold change /veh CCDC152 (11743942_at) / RFU ECM1 (11717891_a_at) / Fold change /veh ECM1 (11717891_a_at) / RFU IL23R (11748794_a_at) / Fold change /veh IL23R (11748794_a_at) / RFU TNFAIP8L3 (11732012_x_at) / Fold change /veh TNFAIP8L3 (11732012_x_at) / RFU MBOAT4 (11741988_at) / Fold change /veh MBOAT4 (11741988_at) / RFU 11764193_at / Fold change /veh 11764193_at / RFU TMEM53 (11763286_at) / Fold change /veh TMEM53 (11763286_at) / RFU MAGEB2 (11727129_at) / Fold change /veh MAGEB2 (11727129_at) / RFU TMEM200A (11744735_a_at) / Fold change /veh TMEM200A (11744735_a_at) / RFU CCDC152 (11751479_a_at) / Fold change /veh CCDC152 (11751479_a_at) / RFU FAM211A (11726209_a_at) / Fold change /veh FAM211A (11726209_a_at) / RFU RGS16 (11746705_a_at) / Fold change /veh RGS16 (11746705_a_at) / RFU VCAN (11755009_s_at) / Fold change /veh VCAN (11755009_s_at) / RFU RHOB (11743442_s_at) / Fold change /veh RHOB (11743442_s_at) / RFU RGS16 (11720943_a_at) / Fold change /veh RGS16 (11720943_a_at) / RFU RGS16 (11720944_at) / Fold change /veh RGS16 (11720944_at) / RFU, VPS4B / Fold change vs veh, VPS4B / RFU, CREB1 / Fold change vs veh, CREB1 / RFU, DNAJC13 / Fold change vs veh, DNAJC13 / RFU, GNAQ / Fold change vs veh, GNAQ / RFU, CDK5R1 / Fold change vs veh, CDK5R1 / RFU, ZRANB3 / Fold change vs veh, ZRANB3 / RFU, CUL4A / Fold change vs veh, CUL4A / RFU, CCNY / Fold change vs veh, CCNY / RFU, UFL1 / Fold change vs veh, UFL1 / RFU, COG3 / Fold change vs veh, COG3 / RFU, DIAPH2 / Fold change vs veh, DIAPH2 / RFU, SKA2 / Fold change vs veh, SKA2 / RFU, AFF3 / Fold change vs veh, AFF3 / RFU, LMF1 / Fold change vs veh, LMF1 / RFU, IPO11 / Fold change vs veh, IPO11 / RFU, DFFB / Fold change vs veh, DFFB / RFU, FOXP1 / Fold change vs veh, FOXP1 / RFU, CARD8 / Fold change vs veh, CARD8 / RFU, STRN3 / Fold change vs veh, STRN3 / RFU, ADK / Fold change vs veh, ADK / RFU, RASSF2 / Fold change vs veh, RASSF2 / RFU, WIPF1 / Fold change vs veh, WIPF1 / RFU, LARP1B / Fold change vs veh, LARP1B / RFU, RASA1 / Fold change vs veh, RASA1 / RFU, RB1 / Fold change vs veh, RB1 / RFU, PPFIA1 / Fold change vs veh, PPFIA1 / RFU, MAT2A / Fold change vs veh, MAT2A / RFU, CCT5 / Fold change vs veh, CCT5 / RFU, WDR92 / Fold change vs veh, WDR92 / RFU, CUX1 / Fold change vs veh, CUX1 / RFU, TTC7A / Fold change vs veh, TTC7A / RFU, TMEM135 / Fold change vs veh, TMEM135 / RFU, DEPTOR / Fold change vs veh, DEPTOR / RFU, CPM / Fold change vs veh, CPM / RFU, DNAJB6 / Fold change vs veh, DNAJB6 / RFU, CACNA2D3 / Fold change vs veh, CACNA2D3 / RFU, DTX4 / Fold change vs veh, DTX4 / RFU, TFCP2 / Fold change vs veh, TFCP2 / RFU, GMCL1 /// GMCL1P1 / Fold change vs veh, GMCL1 /// GMCL1P1 / RFU, AEBP2 / Fold change vs veh, AEBP2 / RFU, SNHG1 /// SNORD22 /// SNORD25 /// SNORD26 /// SNORD27 /// SNORD28 /// SNORD29 /// SNORD31 / Fold change vs veh, SNHG1 /// SNORD22 /// SNORD25 /// SNORD26 /// SNORD27 /// SNORD28 /// SNORD29 /// SNORD31 / Fold change (Aza/veh), C12orf56 (ProbeSet 11735607_a_at) / Fold change (ACY-1035/veh), C12orf56 (ProbeSet 11735607_a_at) / Fold change (Aza/veh), FGFR1OP (ProbeSet 11751329_s_at) / Fold change (ACY-1035/veh), FGFR1OP (ProbeSet 11751329_s_at) / Fold change (Aza/veh), VPS36 (ProbeSet 11739960_a_at) / Fold change (ACY-1035/veh), VPS36 (ProbeSet 11739960_a_at) / RFU SYPL1 (11715823_x_at) / Fold change /veh SYPL1 (11715823_x_at) / RFU IGFBP7 (11715501_s_at) / Fold change /veh IGFBP7 (11715501_s_at) / RFU REEP3 (11722064_at) / Fold change /veh REEP3 (11722064_at) / RFU IGLL1 (11728026_x_at) / Fold change /veh IGLL1 (11728026_x_at): dose or concentration left out as unconfirmed
Settings: ProbeSet 11734937_a_at; LIST B

Nc1ncn([C@@H]2O[C@H](CO)[C@@H](O)[C@H]2O)c(=O)n1 [azacitidine]
RFU, CNOT2: 887.01 RFU
